Data published in PubChem BioAssay AID1845200 (Molecular Pharmacology Branch, DTP, NCI, 2023).

Test system: ASPS-1 complex tumor spheroids, viability
Test: Anticancer human tumor ASPS-1 cell line growth inhibition;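 also: spheroids exposed to agents for 7 days after 3 days of growth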;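 as to viability, T/C: 100% = DMSO vehicle treated spheroids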
Conditions: for IC50: curve of first compound; for viability, T/C: stronger effect = lower value
Summary of the method: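 Single agents and combinations were tested on spheroids built from tumor cells plus HUVEC and hMSC, at half-log dilutions starting at or near clinical Cmax, else 10 microM; final DMSO 0.25% (v/v).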

[1] = second compound 30 pM, first compound 0.0316 µM
[2] = second compound 30 pM, first compound 0.1 µM
[3] = second compound 30 pM, first compound 0.316 µM
[4] = second compound 30 pM, first compound 1 µM
[5] = second compound 30 pM, first compound 3.16 µM
[6] = second compound 30 pM, first compound 10 µM
[7] = second compound 94.9 pM, first compound 0.0316 µM
[8] = second compound 94.9 pM, first compound 0.1 µM
[9] = second compound 94.9 pM, first compound 0.316 µM
[10] = second compound 94.9 pM, first compound 1 µM
[11] = second compound 94.9 pM, first compound 3.16 µM
[12] = second compound 94.9 pM, first compound 10 µM
[13] = second compound 0.0003 µM, first compound 0.0316 µM
[14] = second compound 0.0003 µM, first compound 0.1 µM
[15] = second compound 0.0003 µM, first compound 0.316 µM
[16] = second compound 0.0003 µM, first compound 1 µM
[17] = second compound 0.0003 µM, first compound 3.16 µM
[18] = second compound 0.0003 µM, first compound 10 µM
[19] = second compound 0.000949 µM, first compound 0.0316 µM
[20] = second compound 0.000949 µM, first compound 0.1 µM
[21] = second compound 0.000949 µM, first compound 0.316 µM
[22] = second compound 0.000949 µM, first compound 1 µM
[23] = second compound 0.000949 µM, first compound 3.16 µM
[24] = second compound 0.000949 µM, first compound 10 µM
[25] = second compound 0.003 µM, first compound 0.0316 µM
[26] = second compound 0.003 µM, first compound 0.1 µM
[27] = second compound 0.003 µM, first compound 0.316 µM
[28] = second compound 0.003 µM, first compound 1 µM
[29] = second compound 0.003 µM, first compound 3.16 µM
[30] = second compound 0.003 µM, first compound 10 µM

| SMILES | IC50 (second compound 30 pM) [nM] | IC50 (second compound 94.9 pM) [nM] | IC50 (second compound 0.0003 µM) [nM] | IC50 (second compound 0.000949 µM) [nM] | IC50 (second compound 0.003 µM) [nM] | viability, T/C [1] [%] | viability, T/C [2] [%] | viability, T/C [3] [%] | viability, T/C [4] [%] | viability, T/C [5] [%] | viability, T/C [6] [%] | viability, T/C [7] [%] | viability, T/C [8] [%] | viability, T/C [9] [%] | viability, T/C [10] [%] | viability, T/C [11] [%] | viability, T/C [12] [%] | viability, T/C [13] [%] | viability, T/C [14] [%] | viability, T/C [15] [%] | further results |
| --- | --- | --- | --- | --- | --- | --- | --- | --- | --- | --- | --- | --- | --- | --- | --- | --- | --- | --- | --- | --- | --- |
| CC1COCCN1c1cc(-c2ccnn2C)c2ccnc(-c3ccn[nH]3)c2n1 (stereo not given) + COc1cc2c(cc1O)CCNC21CSC2c3c(OC(C)=O)c(C)c4c(c3C(COC1=O)N1C(O)C3Cc5cc(C)c(OC)c(O)c5C(C21)N3C)OCO4 | 156 | 102 | < 31.6 | < 31.6 | < 31.6 | 81.9 | 53.9 | 43.1 | 42.9 | 40.7 | 38.9 | 71.7 | 50.1 | 37.5 | 38.5 | 40.6 | 41 | 46.4 | 37 | 32 | viability, T/C [16]: 30.1%; viability, T/C [17]: 43%; viability, T/C [18]: 38.3%; viability, T/C [19]: 27.4%; viability, T/C [20]: 25%; viability, T/C [21]: 21.3%; viability, T/C [22]: 25.9%; viability, T/C [23]: 18.1%; viability, T/C [24]: 13.9%; viability, T/C [25]: 11.5%; viability, T/C [26]: 10.2%; viability, T/C [27]: 8.78%; viability, T/C [28]: 5.28%; viability, T/C [29]: 0.36%; viability, T/C [30]: 0.46% |
| COc1cc(C)[nH]c(=O)c1CN1CCc2c(Cl)cc(C(OC)C3COC3)c(Cl)c2C1=O (stereo not given) + COc1cc2c(cc1O)CCNC21CSC2c3c(OC(C)=O)c(C)c4c(c3C(COC1=O)N1C(O)C3Cc5cc(C)c(OC)c(O)c5C(C21)N3C)OCO4 | > 10000 | > 10000 | > 10000 | > 10000 | < 31.6 | 107 | 103 | 100 | 108 | 102 | 101 | 98.7 | 103 | 103 | 101 | 100 | 99.2 | 98 | 102 | 98.7 | viability, T/C [16]: 95%; viability, T/C [17]: 96.1%; viability, T/C [18]: 93.2%; viability, T/C [19]: 77.7%; viability, T/C [20]: 73.6%; viability, T/C [21]: 72.1%; viability, T/C [22]: 64.7%; viability, T/C [23]: 68.2%; viability, T/C [24]: 56%; viability, T/C [25]: 19.5%; viability, T/C [26]: 21.6%; viability, T/C [27]: 23.1%; viability, T/C [28]: 18.3%; viability, T/C [29]: 19%; viability, T/C [30]: 10.5% |
